Read-outs that look alike come from different tables or passages of the source.
Tests used:
[1] = in vitro; conditions: human, ahh-1 cells, RELATIVE SURVIVAL; for viability at 48 h, 25 µM: 25 μM × 48 hours; for viability at 48 h, 5000 µM: 5 mM × 48 hours; for viability at 48 h, 14000 µM: 14 mM × 48 hours; for viability at 48 h, 28000 µM: 28 mM × 48 hours; for viability at 48 h, 300 µM: 300 μM × 48 hours
[2] = test system: AHH-1 cells
[3] = test system: 6-TG resistant AHH-1 clones; test: Plating efficiency of clones resistant to 6-TG; format: cell-based, human; conditions: for Plating Efficiency with 6-TG & 2000 c/w: with 2000 wild type cells per well
[4] = test system: 6-TG resistant AHH-1 cells
[5] = test system: AHH-1 cells; test: Cell clumping at concentrations of 6-TG in microtiter wells; format: cell-based, human
Experimental: When applied at relatively high concentrations to a colony of cells, 6-thioguanine (6-TG) causes the cells to clump together, rendering it difficult or impossible for live mutant cells to survive and create colonies. […] […]. Subsequent routine work was done using 0.5 μg/ml of 6-TG.

[6] = test system: wild type AHH-1 cells; test: Plating efficiency of wild type cells with 6-TG; format: cell-based, human
[7] = test system: AHH activity of AHH-1 cells; format: cell-based, human
Experimental: The quantity of 3-hydroxy BaP was measured by fluorescent intensity activated by a light wavelength of 396 nm and measured at 522 nm using a spectrofluorimeter (Farrand Model Mk-1, Valhalla, N.Y.).
After growth of the cells in culture medium with gentamycin and kanamycin, the cells were plated in microtiter plates at a density of about 0.2 cells per well. Colonies were isolated and characterized for BaP-induced growth inhibition. A total of 47 colonies were isolated and contacted with 40 uM BaP. In its normal state, BaP is not highly cytotoxic or mutagenic; however, if metabolized by oxidative activity into one or more epoxides or phenols, the metabolites tend to be toxic and mutagenic.
6-TG resistant clones were characterized for AHH activity by measuring the rate of production of 3-OH benzopyrene, a fluorescent metabolite of BaP which is created by AHH activity.

[8] = in vitro; format: cell-based; conditions: human, ahh-1 cells, read-out: Relative Survival
Source text: (§1) Preferential survival during toxic treatment tested by exposing two sets of cells to varying concentrations of ICR-191.

[9] = test system: 6-TG^r AHH-1 cells; test: in vitro; format: cell-based, human; conditions: varying concentrations of ICR-191
Source text: as §1

[10] = in vitro; format: cell-based, human; conditions: human, 6-tg resistant ahh-1 cells, 6-TG^r AHH-1 cells, read-out: Relative Survival
Source text: as §1

[11] = test system: AHH-1 cells; test: Phenotypic expression of ICR-191 induced mutation; format: cell-based, human
Experimental: AHH-1 cell cultures were contacted with ICR-191 (Polysciences Inc, Warrington Pa.) which is a known mutagen comprising an acridine mustard derivative, at varying concentrations ranging up to 1.0 μM, for 24 hours. The cultures were resuspended in growth medium and allowed to grow. At different times after treatment, the cells were contacted with 6-TG to determine the mutant fraction.

[12] = 50 μM × 48 hours, induction BNF
[13] = 50 μM × 48 hours, induction none
[14] = 100 μM × 48 hours, induction BNF
[15] = 100 μM × 48 hours, induction none
[16] = 25 μM × 48 hours, induction none
[17] = 75 μM × 48 hours, induction none
[18] = 1 μM × 48 hours, induction CEPE
[19] = 3 μM × 48 hours, induction CEPE
[20] = 10 μM × 48 hours, induction CEPE
[21] = 25 μM × 4.8 hours, induction CEPE
[22] = 50 μM × 48 hours, induction CEPE & BNF
[23] = 10 μM × 48 hours, induction BNF
[24] = 600 μM × 48 hours, induction none

Cc1cccc2c1ccc1ccccc12 [1MP, 1-methylphenanthrene]
viability at 48 h, 25 µM ([1]; induction BNF): 47% | viability at 48 h, 25 µM ([1]; induction none): 54% | viability at 48 h, 50 µM [1, 12]: 35% | viability at 48 h, 50 µM [1, 13]: 38% | viability at 48 h, 100 µM [1, 14]: 29% | viability at 48 h, 100 µM [1, 15]: 31% | MUTANT FRACTION × 10^6, MEAN ± STD.DEV. ([2]; 25 μM × 48 hours, induction BNF): 3.6 ± 1.2 × 10^6 | MUTANT FRACTION × 10^6, MEAN ± STD.DEV. [2, 16]: 4.4 ± 1.2 × 10^6 | MUTANT FRACTION × 10^6, MEAN ± STD.DEV. [2, 12]: 8.9 ± 1.5 × 10^6 | MUTANT FRACTION × 10^6, MEAN ± STD.DEV. [2, 13]: 4.1 ± 1.2 × 10^6 | MUTANT FRACTION × 10^6, MEAN ± STD.DEV. [2, 14]: 7.8 ± 1.4 × 10^6 | MUTANT FRACTION × 10^6, MEAN ± STD.DEV. [2, 15]: 7.8 ± 1.1 × 10^6

CC(=O)Nc1ccc2c(c1)Cc1ccccc1-2 [2AAF, 2-acetoaminofluorene]
viability at 48 h, 25 µM ([1]; induction none): 73% | viability at 48 h, 50 µM [1, 13]: 50% | viability at 48 h, 75 µM [1, 17]: 37% | viability at 48 h, 100 µM [1, 15]: 33% | MUTANT FRACTION × 10^6, MEAN ± STD.DEV. [2, 16]: 4.8 ± 1.2 × 10^6 | MUTANT FRACTION × 10^6, MEAN ± STD.DEV. [2, 13]: 3.8 ± 1.1 × 10^6 | MUTANT FRACTION × 10^6, MEAN ± STD.DEV. [2, 17]: 6.9 ± 1.7 × 10^6 | MUTANT FRACTION × 10^6, MEAN ± STD.DEV. [2, 15]: 7.7 ± 0.7 × 10^6

Nc1nc2nc[nH]c2c(=S)[nH]1 [6-TG, 6-thioguanine]
Plating Efficiency in 5 μg/ml 6-TG at 2 cells/well ([3]; clone BP-3): 0.24 | Plating Efficiency with 6-TG & 2000 c/w ([3]; clone BP-3): 0.23 | Plating Efficiency in 5 μg/ml 6-TG at 2 cells/well ([3]; clone BP-4): 0.34 | Plating Efficiency with 6-TG & 2000 c/w ([3]; clone BP-4): 0.34 | Plating Efficiency in 5 μg/ml 6-TG at 2 cells/well ([3]; clone BP-5): 0.21 | Plating Efficiency with 6-TG & 2000 c/w ([3]; clone BP-5): 0.20 | Plating Efficiency in 5 μg/ml 6-TG at 2 cells/well ([3]; clone BP-6): 0.26 | Plating Efficiency with 6-TG & 2000 c/w ([3]; clone BP-6): 0.34 | Plating Efficiency in 5 μg/ml 6-TG at 2 cells/well ([3]; clone BP-7): 0.06 | Plating Efficiency with 6-TG & 2000 c/w ([3]; clone BP-7): 0.07 | sensitivity to toxic effects of 6-TG ([4]; 6-TG resistant mutant AHH-1 population, up to 5 μg/ml, about two cells per well): not sensitive | growth rates with and without 6-TG ([4]; seven 6-TG resistant clones): comparable growth rates | cells per microtiter well that could be assayed ([5]; 0.5 μg/ml 6-TG): ≥ 20,000 cells per microtiter well | cells per microtiter well that could be assayed without clumping ([5]; 5 μg/ml 6-TG): about 2,000 cells per microtiter well | Plating Efficiency in 5 μg/ml 6-TG at 2 cells/well [6]: < 10^-3 | Plating Efficiency with 6-TG & 2000 c/w ([6]; 2000 c/w): 10^-5

C1=Cc2cc3cccc4ccc5ccc1c2c5c43 [CEPE, cyclopenteno(c,d)pyrene]
viability at 48 h, 1 µM [1, 18]: 61% | viability at 48 h, 3 µM [1, 19]: 63% | viability at 48 h, 10 µM [1, 20]: 59% | viability at 4.8 h, 25 µM [1, 21]: 54% | viability at 48 h, 25 µM ([1]; induction CEPE & BNF): 34% | viability at 48 h, 50 µM [1, 22]: 27% | induction of AHH activity [7]: inducers | MUTANT FRACTION × 10^6, MEAN ± STD.DEV. [2, 18]: 71 ± 6 × 10^6 | MUTANT FRACTION × 10^6, MEAN ± STD.DEV. [2, 19]: 78 ± 9 × 10^6 | MUTANT FRACTION × 10^6, MEAN ± STD.DEV. [2, 20]: 22 ± 2 × 10^6 | MUTANT FRACTION × 10^6, MEAN ± STD.DEV. [2, 21]: 34 ± 4 × 10^6 | MUTANT FRACTION × 10^6, MEAN ± STD.DEV. ([2]; 25 μM × 48 hours, induction CEPE & BNF): 74 ± 7 × 10^6 | MUTANT FRACTION × 10^6, MEAN ± STD.DEV. [2, 22]: 64 ± 7 × 10^6

CN(C)N=O [DMN, dimethylnitrosamine]
viability at 48 h, 5000 µM ([1]; induction BNF): 112% | viability at 48 h, 5000 µM ([1]; induction none): 98% | viability at 48 h, 14000 µM ([1]; induction BNF): 100% | viability at 48 h, 14000 µM ([1]; induction none): 92% | viability at 48 h, 28000 µM ([1]; induction BNF): 87% | viability at 48 h, 28000 µM ([1]; induction none): 81% | MUTANT FRACTION × 10^6, MEAN ± STD.DEV. ([2]; 5 mM × 48 hours, induction BNF): 4.0 ± 0.7 × 10^6 | MUTANT FRACTION × 10^6, MEAN ± STD.DEV. ([2]; 5 mM × 48 hours, induction none): 3.5 ± 0.7 × 10^6 | MUTANT FRACTION × 10^6, MEAN ± STD.DEV. ([2]; 14 mM × 48 hours, induction BNF): 8.0 ± 2.0 × 10^6 | MUTANT FRACTION × 10^6, MEAN ± STD.DEV. ([2]; 14 mM × 48 hours, induction none): 3.5 ± 0.7 × 10^6 | MUTANT FRACTION × 10^6, MEAN ± STD.DEV. ([2]; 28 mM × 48 hours, induction BNF): 8.6 ± 2.1 × 10^6 | MUTANT FRACTION × 10^6, MEAN ± STD.DEV. ([2]; 28 mM × 48 hours, induction none): 4.1 ± 1.3 × 10^6

CCOS(C)(=O)=O [EMS, ethyl methanesulfonate]
viability at 24 h, 59 µM ([1]; 59 μM × 24 hours): 48% | viability at 24 h, 100 µM ([1]; 100 μM × 24 hours): 36% | MUTANT FRACTION × 10^6, MEAN ± STD.DEV. ([2]; 59 μM × 24 hours): 6.3 ± 1.3 × 10^6 | MUTANT FRACTION × 10^6, MEAN ± STD.DEV. ([2]; 100 μM × 24 hours): 20 ± 5 × 10^6

c1ccc2c(c1)-c1cccc3cccc-2c13 [Fla, fluoranthene]
viability at 48 h, 10 µM [1]: 105% | viability at 48 h, 20 µM [1]: 93% | viability at 48 h, 40 µM [1]: 75% | viability at 48 h, 50 µM [1]: 67% | viability at 48 h, 100 µM [1]: 45% | RELATIVE SURVIVAL ([2]; human, ahh-1 cells, 48 h, 40 µM): 0.70

COc1ccc2nc3cc(Cl)ccc3c(NCCCNCCCl)c2c1 [ICR-191]
viability at 24 h ([8]; 0.25 μg/ml at 24 hrs): 65% | viability at 24 h ([8]; 0.5 μg/ml at 24 hrs): 48% | viability at 24 h ([8]; 1.0 μg/ml at 24 hrs): 13% | difference in survival rate between non-resistant and 6-TG resistant AHH-1 cells [9]: did not reach the level of statistical significance | viability at 24 h ([10]; 0.25 μg/ml at 24 hrs): 48% | viability at 24 h ([10]; 0.5 μg/ml at 24 hrs): 20% | viability at 24 h ([10]; 1.0 μg/ml at 24 hrs): 14% | viability at 24 h, 0.63 µM ([1]; 0.63 μM × 24 hours): 65% | viability at 24 h, 1.25 µM ([1]; 1.25 μM × 24 hours): 48% | viability at 24 h, 2.5 µM ([1]; 2.5 μM × 24 hours): 13% | time to full expression of induced mutation ([11]; ICR-191 up to 1.0 μM, 24 hours): ≤ 6 days | mutant fraction stability after full expression ([11]; up to 14 days): remained relatively stable | MUTANT FRACTION × 10^6, MEAN ± STD.DEV. ([2]; 0.63 μM × 24 hours): 62 ± 11 × 10^6 | MUTANT FRACTION × 10^6, MEAN ± STD.DEV. ([2]; 1.25 μM × 24 hours): 116 ± 17 × 10^6 | MUTANT FRACTION × 10^6, MEAN ± STD.DEV. ([2]; 2.5 μM × 24 hours): 147 ± 28 × 10^6

C/C=C(/C)C(=O)O[C@H]1CCN2CC=C(COC(=O)[C@@](O)([C@H](C)OC)C(C)(C)O)[C@H]12 [LSCP, lasiocarpine]
viability at 48 h, 10 µM [1, 23]: 103% | viability at 48 h, 100 µM [1, 14]: 91% | viability at 48 h, 100 µM [1, 15]: 130% | viability at 48 h, 300 µM ([1]; induction BNF): 81% | viability at 48 h, 300 µM ([1]; induction none): 89% | viability at 48 h, 600 µM [1, 24]: 82% | MUTANT FRACTION × 10^6, MEAN ± STD.DEV. [2, 23]: 3.9 ± 1 × 10^6 | MUTANT FRACTION × 10^6, MEAN ± STD.DEV. [2, 14]: 4.3 ± 1 × 10^6 | MUTANT FRACTION × 10^6, MEAN ± STD.DEV. [2, 15]: 5.4 ± 0.6 × 10^6 | MUTANT FRACTION × 10^6, MEAN ± STD.DEV. ([2]; 300 μM × 48 hours, induction BNF): 12.7 ± 2.1 × 10^6 | MUTANT FRACTION × 10^6, MEAN ± STD.DEV. ([2]; 300 μM × 48 hours, induction none): 6.2 ± 1.3 × 10^6 | MUTANT FRACTION × 10^6, MEAN ± STD.DEV. [2, 24]: 6.0 ± 1.4 × 10^6

— patent publication US5935829A, “Mutation assays involving blood cells that metabolize toxic substances” (priority 1992, dated 1999)
